Experimental data taken from publication PMC4631478, “Structure of AadA from Salmonella enterica: a monomeric aminoglycoside (3′′)(9) adenyltransferase” (Acta Crystallographica Section D: Biological Crystallography, 2015).
Substitutions are numbered along the chain they refer to. Where two headings read alike, the source gives them in different places.

What was measured:
AadA wild type = target: T1, AadA wild type (Salmonella typhimurium, UniProt Q8ZPX9); experiment: ITC binding, wild-type AadA; set-up: species or system Salmonella enterica; settings: for Kd: ITC; for binding to AadA in the absence of ATP (ITC): data not shown
T1 construct: made in house; host or cells: Escherichia coli BL21 Star
T1 sequence (Q8ZPX9 1-262): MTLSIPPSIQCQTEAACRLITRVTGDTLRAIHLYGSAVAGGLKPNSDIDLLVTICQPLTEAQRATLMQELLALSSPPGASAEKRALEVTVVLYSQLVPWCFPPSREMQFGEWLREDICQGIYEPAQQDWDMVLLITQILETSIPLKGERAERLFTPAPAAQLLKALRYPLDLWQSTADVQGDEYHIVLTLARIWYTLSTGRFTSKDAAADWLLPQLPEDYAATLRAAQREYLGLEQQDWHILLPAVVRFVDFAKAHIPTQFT
Experimental: (§1) Binding studies were performed at 25°C using a MicroCal iTC200 instrument (GE Healthcare). Wild-type or mutant AadA at 20–30 µM concentration was dialyzed overnight against 50 mM Tris–HCl pH 7.5, 200 mM NaCl, 5 mM MgCl2, 1 mM tris(2-carboxyethyl)phosphine and titrated with 500–1000 µM ATP, streptomycin (Sigma) or spectinomycin (Sigma) freshly dissolved in the same batch of dialysis buffer prior to each experiment. For titration of streptomycin/spectinomycin in the presence of ATP, a first titration of AadA with ATP to saturation was followed by a second titration with streptomycin/spectinomycin in buffer containing an equivalent concentration of ATP as in the cell. In this way, heats of dilution of ATP were avoided. At least […] consecutive injections of 2 µl were applied at 2 min intervals. The data were analyzed using the MicroCal Analysis plugin in Origin. All ITC data were analyzed assuming one set of binding sites. Each experiment was performed at least twice. For spectinomycin, the concentration used to fit the data was adjusted to the estimated active concentration in binding to AadA, assuming 1:1 binding.

[1] = system: AadA Glu87 mutants (E87A and E87Q); experiment: ITC binding, Glu87 mutants of AadA stated together; set-up: species or system Salmonella enterica
Experimental: as §1

AadA R192A = target: T2, AadA R192A (Salmonella typhimurium, UniProt Q8ZPX9, R192A); experiment: ITC binding, AadA R192A; set-up: species or system Salmonella enterica; settings: for Kd: in the presence of ATP, read-out: K d of substrate ligand (streptomycin / spectinomycin)
T2 construct: made in house; host or cells: Escherichia coli BL21 Star
T2 sequence (Q8ZPX9 1-262 R192A): T1 sequence (Q8ZPX9 1-262) with R192A
Experimental: as §1

AadA K205A = target: T3, AadA K205A (Salmonella typhimurium, UniProt Q8ZPX9, K205A); experiment: ITC binding, AadA K205A; set-up: species or system Salmonella enterica; settings: for Kd: in the presence of ATP, read-out: K d of substrate ligand (streptomycin / spectinomycin)
T3 construct: made in house; host or cells: Escherichia coli BL21 Star
T3 sequence (Q8ZPX9 1-262 K205A): T1 sequence (Q8ZPX9 1-262) with K205A
Experimental: as §1

AadA W112F = target: T4, AadA W112F (Salmonella typhimurium, UniProt Q8ZPX9, W112F); experiment: ITC binding, AadA W112F; set-up: species or system Salmonella enterica; settings: 25°C, in the presence of ATP, read-out: K d of substrate ligand (streptomycin / spectinomycin)
T4 construct: made in house; host or cells: Escherichia coli BL21 Star
T4 sequence (Q8ZPX9 1-262 W112F): T1 sequence (Q8ZPX9 1-262) with W112F
Experimental: as §1

AadA E87Q = target: T5, AadA E87Q (Salmonella typhimurium, UniProt Q8ZPX9, E87Q); experiment: ITC binding, AadA E87Q; set-up: species or system Salmonella enterica; settings: 25°C, in the presence of ATP, nb = no binding detected
T5 construct: made in house; host or cells: Escherichia coli BL21 Star
T5 sequence (Q8ZPX9 1-262 E87Q): T1 sequence (Q8ZPX9 1-262) with E87Q
Experimental: as §1

AadA E87A = target: T6, AadA E87A (Salmonella typhimurium, UniProt Q8ZPX9, E87A); experiment: ITC binding, AadA E87A; set-up: species or system Salmonella enterica; settings: 25°C, in the presence of ATP, nb = no binding detected
T6 construct: made in house; host or cells: Escherichia coli BL21 Star
T6 sequence (Q8ZPX9 1-262 E87A): T1 sequence (Q8ZPX9 1-262) with E87A
Experimental: as §1

AadA D182N = target: T7, AadA D182N (Salmonella typhimurium, UniProt Q8ZPX9, D182N); experiment: ITC binding, AadA D182N; set-up: species or system Salmonella enterica; settings: 25°C, in the presence of ATP, read-out: K d of substrate ligand (streptomycin / spectinomycin)
T7 construct: made in house; host or cells: Escherichia coli BL21 Star
T7 sequence (Q8ZPX9 1-262 D182N): T1 sequence (Q8ZPX9 1-262) with D182N
Experimental: as §1

bacterial growth = system: bacterial growth; set-up: method as in vendor (Sigma); settings: as sold; as estimated from a bacterial growth assay; ref vendor (Sigma); cited from earlier work
[2] = ITC, 25°C, 5 mM MgCl2, nb = no binding detected
[3] = 25°C, in the presence of ATP, wild type AadA, read-out: K d of substrate ligand (streptomycin / spectinomycin)

## Nc1ncnc2c1ncn2[C@@H]1O[C@H](COP(=O)(O)CP(=O)(O)OP(=O)(O)O)[C@@H](O)[C@H]1O [AMPCPP]
AadA wild type; nucleotide titrated alone
  binding to wild-type AadA (ITC): did not show any detectable binding

## Nc1ncnc2c1ncn2[C@@H]1O[C@H](COP(=O)(O)OP(=O)(O)OP(=O)(O)O)[C@@H](O)[C@H]1O [ATP]
AadA wild type; wild-type AadA, read-out: K d of ATP
  Kd: 13000 nM
[1]; E87Q and E87A vs wild type, ITC
  lower affinity for ATP compared with the wild type: threefold to fourfold lower affinity
AadA R192A
  ATP binding (ITC): no ATP binding could be detected
AadA R192A; [2]
  K d(ATP): nb
AadA K205A
  ATP binding (ITC): no ATP binding could be detected
AadA K205A; [2]
  K d(ATP): nb

## CN[C@@H]1[C@H](O)[C@H](NC)[C@H]2O[C@@]3(O)C(=O)C[C@@H](C)O[C@H]3O[C@@H]2[C@H]1O [Spectinomycin, spectinomycin]
AadA wild type; [3]
  Kd: 500 nM
AadA wild type
  binding to AadA in the absence of ATP (ITC): did not display detectable binding
AadA wild type; from fit of the ITC data assuming 1:1 binding
  activity in binding to AadA, of the assumed active concentration: 31%
AadA W112F
  Kd: 600 nM
AadA E87Q
  K d of substrate ligand (streptomycin / spectinomycin): nb
AadA E87A
  K d of substrate ligand (streptomycin / spectinomycin): nb
[1]; Glu87 mutants
  binding of spectinomycin (ITC): no measurable binding
AadA R192A; ITC, 25°C
  Kd: > 30000 nM
AadA D182N
  Kd: > 30000 nM
Bacterial growth
  potency: 603 µg/mg
AadA K205A; ITC, 25°C
  Kd: > 10000 nM

## [H]/N=C(/N)N[C@H]1[C@H](O)[C@@H](O)[C@H](O[C@@H]2O[C@@H](C)[C@](O)(C=O)[C@H]2O[C@@H]2O[C@@H](CO)[C@H](O)[C@@H](O)[C@@H]2NC)[C@@H](N/C(N)=N\[H])[C@@H]1O [Streptomycin, streptomycin]
AadA wild type; [3]
  Kd: 500 nM
AadA wild type
  binding to AadA in the absence of ATP (ITC): did not display detectable binding
AadA W112F
  Kd: 800 nM
[1]; Glu87 mutants vs wild type, ITC
  lowered affinity for streptomycin: 20–40 fold
AadA R192A; ITC, 25°C
  Kd: > 100000 nM
AadA D182N
  Kd: 700 nM
AadA K205A; ITC, 25°C
  Kd: 1300 nM
